Measurements reported in ChEMBL document CHEMBL3885861, “Open TG-GATES”.

Species on record: Rattus norvegicus
Experiment: Open TG-GATES - Regimen: Single
Type: toxicity, organism-based, Sprague-Dawley
Design: regimen Single, gender Male, age 6 weeks
Conditions: in vivo, po, 300 mg/kg, route gavage, dose level High; for APTT / Bas / Eos / Fbg / Hb / Ht / Lym / MCH / MCHC / MCV / Mono / Neu / PT / Plat / RBC / Ret / WBC: tissue Blood; for KIDNEY_L / KIDNEY_R / KIDNEY_TOTAL: tissue Kidney; for LIVER: tissue Liver; for A/G / ALP / ALT / AST / BUN / CRE / Ca / Cl / DBIL / GLC / IP / K / LDH / Na / PL / RALB / TBIL / TC / TG / TP / gamma-GTP: tissue Plasma

Work on `C[C@]12CCC(=O)C=C1CC[C@@H]1[C@@H]2CC[C@@]2(C)[C@H]1CC[C@]2(C)O` [METHYLTESTOSTERONE] yielded a TERMINAL_BW (3 h) of 199.1 g, an APTT (3 h) of 18.1 s and a Bas (3 h) of 0%. The Eos (3 h) was 0.8%, the Fbg (3 h) was 279.8 mg/dL and the Hb (3 h) was 13.1 g/dL. For the same compound, the Ht (3 h) was 38.1%, the Lym (3 h) was 74% and the MCH (3 h) was 21.3 pg. It also gave an MCHC (3 h) of 34.4%, an MCV (3 h) of 62.1 fL and a Mono (3 h) of 3.2%. The Neu (3 h) was 21.2%, the PT (3 h) was 12.9 s and the Plat (3 h) was 116.5 x10_4/uL. It also gave an RBC (3 h) of 614.2 x10_4/ul, a Ret (3 h) of 8.5% and a WBC (3 h) of 82.4 x10_2/uL. The KIDNEY_L (3 h) was 0.9 g, the KIDNEY_R (3 h) was 0.9 g and the KIDNEY_TOTAL (3 h) was 1.8 g. For the same compound, the LIVER (3 h) was 8.5 g, the A/G (3 h) was 0.9 and the ALP (3 h) was 1496.8 IU/L. It also gave an ALT (3 h) of 40 IU/L, an AST (3 h) of 74.6 IU/L and a BUN (3 h) of 10.6 mg/dL. The CRE (3 h) was 0.2 mg/dL, the Ca (3 h) was 10.6 mg/dL and the Cl (3 h) was 105.4 meq/L. The DBIL (3 h) was 0.012 mg/dL, the GLC (3 h) was 188.2 mg/dL and the IP (3 h) was 9.6 mg/dL. The K (3 h) was 4.3 meq/L, the LDH (3 h) was 66 IU/L and the Na (3 h) was 140.8 meq/L. For the same compound, the PL (3 h) was 135.2 mg/dL, the RALB (3 h) was 2.5 g/dL and the TBIL (3 h) was 0.05 mg/dL. The TC (3 h) was 75 mg/dL, the TG (3 h) was 41.2 mg/dL and the TP (3 h) was 5.4 g/dL. For the same compound, the gamma-GTP (3 h) was 1.2 IU/L, the TERMINAL_BW (6 h) was 201.8 g and the APTT (6 h) was 18.2 s. It also gave a Bas (6 h) of 0%, an Eos (6 h) of 0.8% and a Fbg (6 h) of 274.8 mg/dL. For the same compound, the Hb (6 h) was 12.9 g/dL, the Ht (6 h) was 37.7% and the Lym (6 h) was 76.4%. For the same compound, the MCH (6 h) was 21.3 pg, the MCHC (6 h) was 34.3% and the MCV (6 h) was 62 fL. The Mono (6 h) was 3%, the Neu (6 h) was 19.6% and the PT (6 h) was 13.4 s. For the same compound, the Plat (6 h) was 114.3 x10_4/uL, the RBC (6 h) was 608.4 x10_4/ul and the Ret (6 h) was 7.9%. For the same compound, the WBC (6 h) was 66.5 x10_2/uL, the KIDNEY_L (6 h) was 0.9 g and the KIDNEY_R (6 h) was 0.9 g. It also gave a KIDNEY_TOTAL (6 h) of 1.7 g, an LIVER (6 h) of 8.1 g and an A/G (6 h) of 0.9. It also gave an ALP (6 h) of 1589.4 IU/L, an ALT (6 h) of 45 IU/L and an AST (6 h) of 77.2 IU/L. It also gave a BUN (6 h) of 9 mg/dL, a CRE (6 h) of 0.2 mg/dL and a Ca (6 h) of 10.6 mg/dL. The Cl (6 h) was 107.8 meq/L, the DBIL (6 h) was 0.016 mg/dL and the GLC (6 h) was 181.8 mg/dL. The IP (6 h) was 9.6 mg/dL, the K (6 h) was 4.2 meq/L and the LDH (6 h) was 67.8 IU/L. The Na (6 h) was 141.6 meq/L, the PL (6 h) was 120 mg/dL and the RALB (6 h) was 2.5 g/dL. The TBIL (6 h) was 0.054 mg/dL, the TC (6 h) was 57.8 mg/dL and the TG (6 h) was 40.8 mg/dL. It also gave a TP (6 h) of 5.4 g/dL, a gamma-GTP (6 h) of 1.2 IU/L and a TERMINAL_BW (9 h) of 203.1 g. The APTT (9 h) was 17.8 s, the Bas (9 h) was 0% and the Eos (9 h) was 1%. It also gave a Fbg (9 h) of 269.8 mg/dL, a Hb (9 h) of 12.7 g/dL and a Ht (9 h) of 37.2%. The Lym (9 h) was 74.4%, the MCH (9 h) was 21.5 pg and the MCHC (9 h) was 34.1%. For the same compound, the MCV (9 h) was 62.9 fL, the Mono (9 h) was 2.8% and the Neu (9 h) was 21.8%. It also gave a PT (9 h) of 13.7 s, a Plat (9 h) of 105 x10_4/uL and an RBC (9 h) of 592.4 x10_4/ul. For the same compound, the Ret (9 h) was 8.5%, the WBC (9 h) was 70.7 x10_2/uL and the KIDNEY_L (9 h) was 0.9 g. It also gave a KIDNEY_R (9 h) of 0.9 g, a KIDNEY_TOTAL (9 h) of 1.8 g and an LIVER (9 h) of 8.1 g. It also gave an A/G (9 h) of 0.9, an ALP (9 h) of 1500.8 IU/L and an ALT (9 h) of 36.6 IU/L. For the same compound, the AST (9 h) was 70.6 IU/L, the BUN (9 h) was 7.8 mg/dL and the CRE (9 h) was 0.2 mg/dL. For the same compound, the Ca (9 h) was 10.5 mg/dL, the Cl (9 h) was 107.6 meq/L and the DBIL (9 h) was 0.02 mg/dL. It also gave a GLC (9 h) of 182.4 mg/dL, an IP (9 h) of 10.7 mg/dL and a K (9 h) of 4.3 meq/L. For the same compound, the LDH (9 h) was 59 IU/L, the Na (9 h) was 142.4 meq/L and the PL (9 h) was 103.2 mg/dL. The RALB (9 h) was 2.5 g/dL, the TBIL (9 h) was 0.06 mg/dL and the TC (9 h) was 46.2 mg/dL. For the same compound, the TG (9 h) was 49 mg/dL, the TP (9 h) was 5.3 g/dL and the gamma-GTP (9 h) was 1 IU/L. It also gave a TERMINAL_BW (24 h) of 203 g, an APTT (24 h) of 20.8 s and a Bas (24 h) of 0%. It also gave an Eos (24 h) of 1%, a Fbg (24 h) of 267.4 mg/dL and a Hb (24 h) of 13.1 g/dL. The Ht (24 h) was 37.8%, the Lym (24 h) was 83% and the MCH (24 h) was 22 pg. For the same compound, the MCHC (24 h) was 34.5%, the MCV (24 h) was 63.7 fL and the Mono (24 h) was 2.6%. The Neu (24 h) was 13%, the PT (24 h) was 13.8 s and the Plat (24 h) was 116.9 x10_4/uL. The RBC (24 h) was 593.2 x10_4/ul, the Ret (24 h) was 7.7% and the WBC (24 h) was 89.5 x10_2/uL. The KIDNEY_L (24 h) was 0.9 g, the KIDNEY_R (24 h) was 0.9 g and the KIDNEY_TOTAL (24 h) was 1.8 g. For the same compound, the LIVER (24 h) was 10.2 g, the A/G (24 h) was 0.9 and the ALP (24 h) was 1864.8 IU/L. The ALT (24 h) was 48.8 IU/L, the AST (24 h) was 77.6 IU/L and the BUN (24 h) was 16.8 mg/dL. For the same compound, the CRE (24 h) was 0.2 mg/dL, the Ca (24 h) was 10.9 mg/dL and the Cl (24 h) was 107.8 meq/L. For the same compound, the DBIL (24 h) was 0.034 mg/dL, the GLC (24 h) was 185.2 mg/dL and the IP (24 h) was 7.6 mg/dL. For the same compound, the K (24 h) was 4.3 meq/L, the LDH (24 h) was 71 IU/L and the Na (24 h) was 142 meq/L. The PL (24 h) was 126.6 mg/dL, the RALB (24 h) was 2.6 g/dL and the TBIL (24 h) was 0.032 mg/dL. For the same compound, the TC (24 h) was 45.4 mg/dL, the TG (24 h) was 238 mg/dL and the TP (24 h) was 5.6 g/dL. The gamma-GTP (24 h) was 1.2 IU/L.
